In the supplement of paper PMC10307832:

Columns and labels:
Assay in all cases: relative viability (nuclei count vs DMSO), 5 days (fraction); higher = more cells survive
[1] = compound: COc1cc2nc(N3CCCN(C)CC3)nc(NC3CCN(Cc4ccccc4)CC3)c2cc1OC + C[C@@H](Oc1cc(-c2cnn(C3CCNCC3)c2)cnc1N)c1c(Cl)ccc(F)c1Cl [Crizotinib] (partner 1 µM)
Procedure, shortened: (§1)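 Lung cancer cell lines were pin-tool dosed in 1536-well plates on the day after seeding, with either a lone drug or a fixed anchor-drug dose plus five library-drug doses (not always all listed) in √10 steps. Nuclei were counted on 4× images after 5 days. Relative viability is the ratio of treated-well to vehicle-well nuclei counts, with each value a median of duplicate plates.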

[2] = compound: COc1cc2nc(N3CCCN(C)CC3)nc(NC3CCN(Cc4ccccc4)CC3)c2cc1OC + Nc1ncn([C@H]2C[C@H](O)[C@@H](CO)O2)c(=O)n1 [Decitabine] (partner 2 µM)
Procedure, shortened: as §1

[3] = compound: Cc1cc([C@@H](C)Nc2ccccc2C(=O)O)c2nc(N3CCOCC3)cc(=O)n2c1 [AZD6482] + O=C(CCCCCCC(=O)Nc1ccccc1)NO [Vorinostat] (partner 1 µM)
Procedure, shortened: as §1

[4] = compound: Cc1cc([C@@H](C)Nc2ccccc2C(=O)O)c2nc(N3CCOCC3)cc(=O)n2c1 [AZD6482] + Cc1cc(Nc2cc(N3CCN(C)CC3)nc(Sc3ccc(NC(=O)C4CC4)cc3)n2)n[nH]1 [Tozasertib] (partner 0.1 µM)
Procedure, shortened: as §1

Cell Line	relative viability ([1]; first compound 0.2 µM)	relative viability ([1]; first compound 0.6325 µM)	relative viability ([1]; first compound 2 µM)	relative viability ([1]; first compound 6.325 µM)	relative viability ([2]; first compound 0.2 µM)	relative viability ([2]; first compound 0.6325 µM)	relative viability ([2]; first compound 2 µM)	relative viability ([2]; first compound 6.325 µM)	relative viability ([3]; first compound 0.08 µM)	relative viability ([3]; first compound 0.253 µM)	relative viability ([3]; first compound 0.8 µM)	relative viability ([3]; first compound 2.53 µM)	relative viability ([3]; first compound 8 µM)	relative viability ([4]; first compound 0.08 µM)	relative viability ([4]; first compound 0.253 µM)	relative viability ([4]; first compound 0.8 µM)	relative viability ([4]; first compound 2.53 µM)	relative viability ([4]; first compound 8 µM)
ABC-1	1.01	1.01	1.05	1.15	0.969	1.09	0.929	1.19	1.11	0.877	1.01	0.83	0.986	0.168	0.158	0.155	0.201	0.216
NCI-H522	–	–	–	–	0.623	0.694	0.588	0.698	0.818	0.896	0.805	0.829	0.759	0.541	0.439	0.623	0.523	0.543
NCI-H838	0.81	0.878	0.873	0.828	0.45	0.466	0.508	0.474	0.631	0.701	0.664	0.54	0.538	0.264	0.266	0.243	0.192	0.222
SW 900	–	–	–	–	0.448	0.501	0.412	0.373	0.38	0.357	0.528	0.328	0.402	0.559	0.506	0.561	–	0.567
A549	0.803	0.638	0.966	0.736	0.227	0.238	0.263	–	–	–	–	–	–	–	–	–	–	–
A-427	0.861	0.781	1.04	0.838	0.602	0.551	0.589	0.531	0.806	0.843	0.87	0.706	0.826	0.219	0.214	0.188	–	0.209
NCI-H1792	0.994	1.04	0.975	1.08	0.625	0.553	0.481	0.496	–	–	–	–	–	–	–	–	–	–
LCLC-97TM1	0.252	–	0.599	0.313	0.244	0.202	0.225	0.27	0.616	0.703	0.565	–	0.583	0.206	0.208	0.168	0.158	0.128
NCI-H1703	1	0.45	0.868	0.526	–	–	–	–	–	–	–	–	–	–	–	–	–	–
LCLC-103H	1	0.973	1.14	1.06	0.74	0.794	0.777	0.701	0.661	0.748	0.784	0.565	0.51	0.486	0.456	0.472	0.412	0.303
PC-3 [JPC-3]	0.972	0.974	1.11	0.869	0.863	0.805	0.718	0.674	0.766	0.797	0.84	0.457	0.571	0.785	0.793	0.892	0.78	0.823
BEN	0.923	0.892	0.944	0.963	0.765	0.743	0.914	0.699	0.541	0.546	0.594	0.467	0.578	0.463	0.526	0.472	0.493	0.495
NCI-H1666	0.969	0.958	0.981	0.886	0.597	0.805	0.658	0.729	0.848	1.04	1.04	0.813	1.02	0.544	0.701	0.592	0.554	0.648
LC-2-ad	0.398	0.484	0.475	0.43	0.764	0.741	0.734	0.856	0.703	0.702	0.854	0.605	0.625	0.392	0.428	0.452	0.5	0.379
SK-LU-1	0.858	0.943	0.92	0.536	0.644	0.706	0.703	0.618	–	0.767	0.812	0.591	0.517	–	0.334	0.295	0.242	0.261
ChaGo-K-1	1.18	1.11	1.14	1.09	0.553	0.506	0.49	0.504	0.752	0.7	0.744	0.708	0.773	0.206	0.22	0.219	0.2	0.206
Calu-6	0.75	0.676	0.814	0.67	–	–	–	–	–	–	–	–	–	–	–	–	–	–
NCI-H1648	–	–	–	–	–	0.472	–	0.507	0.545	0.422	0.552	–	0.402	0.538	0.463	0.588	0.351	0.409
EBC-1	0.241	0.181	0.147	0.177	–	–	–	–	–	–	–	–	–	–	–	–	–	–
NCI-H1299	0.945	0.976	0.94	0.909	–	–	–	–	–	–	–	–	–	–	–	–	–	–
NCI-H2228	0.529	0.396	0.479	0.334	–	–	–	–	0.482	0.302	0.798	0.555	0.904	–	0.257	0.235	0.287	0.155
NCI-H2342	–	–	–	–	0.791	0.785	0.716	0.662	0.733	0.683	0.71	0.518	0.48	0.465	0.432	0.488	0.372	0.359
IA-LM	–	0.802	0.926	0.42	–	–	–	–	0.858	0.906	1.03	–	0.854	–	–	–	–	–
NCI-H1793	–	–	–	–	0.499	0.476	0.465	0.571	0.582	0.481	0.676	0.38	0.404	0.256	0.189	0.219	0.226	0.15
CAL-12T	0.529	0.464	0.753	0.477	–	–	–	–	0.715	0.666	0.737	0.548	0.556	0.303	0.338	0.37	0.228	0.218
